Data as given in patent US6503952B2, “Triple antimicrobial composition” (The Trustees of Columbia University in the City of New York, priority 1995, dated 2003).

What was measured:
Staphylococcus aureus [1] = test: Colony counts with CHX and PCMX (in 5% isopropanol) in the presence of blood; type: cell-based; conditions: Table 11: in 5% isopropanol, control 3 × 10^6
Procedure: […] After one minute, a 50 microliter aliquot from each sample was diluted to a volume of 10 ml with LTSB drug inactivating medium (5% Tween 80, 2% lecithin, 0.6% sodium oleate, 0.5% sodium thiosulfate, 0.1% protease peptone and 0.1% tryptone), and then 0.5 ml of the diluted culture was plated on trypticase soy agar plates. The plates were incubated at 37° C. for 24 hours, and then colony counts per milliliter of the original 1 ml antimicrobial containing culture were determined.

Staphylococcus aureus [2] = test: Rate of kill: colony counts after one minute exposure of Staphylococcus aureus in TSB broth with 20% serum; type: cell-based; conditions: for CFU/mL: Table 15: single agent, control 2.0 × 10^7
Procedure: To produce each sample, 0.1 ml of a ten-fold concentrated antimicrobial solution was added to 0.9 ml of TSB broth containing 20% serum and 107 colony forming units (CFU) of Staphylococcus aureus. After one minute, a 50 microliter aliquot from each sample was diluted to a volume of 10 ml with LTSB drug inactivating medium (5% Tween 80, 2% lecithin, 0.6% sodium oleate, 0.5% sodium thiosulfate, 0.1% protease peptone and 0.1% tryptone), and then 0.5 ml of the diluted culture was plated on trypticase soy agar plates. The plates were incubated at 37° C. for 24 hours, and then colony counts per milliliter of the original 1 ml antimicrobial containing culture were determined.
Using the same methods set forth in example section 5, above, the rate of kill of compositions comprising PHMB, PCMX, BZK and PXE were tested. […] Synergy was also observed among 0.1% PXE+0.05% PHMB+0.05% PCMX.

parachlorometaxylenol [.125% PCMX]
CFU/ml (Staphylococcus aureus [1]): 1 × 10^6 CFU/ml

parachlorometaxylenol [PCMX]
decrease in the number of CFU relative to control (factor / fold) (Staphylococcus aureus [2]; 2.5% ISOPR samples, relative to the control named in the text (A1, A2, A4 or the no-antimicrobial control)): ten | CFU/mL (Staphylococcus aureus [2]; concentration 0.05%): 5.0 × 10^6 CFU/mL | CFU/mL (Staphylococcus aureus [2]; concentration 0.1%): 1.6 × 10^3 CFU/mL

parachlorometaxylenol [.25% PCMX]
CFU/ml (Staphylococcus aureus [1]): 1.4 × 10^4 CFU/ml

[H]/N=C(\N/C(=N/[H])NCCCCCCNC(=N)NC(=N)Nc1ccc(Cl)cc1)Nc1ccc(Cl)cc1 [.5% CHX, chlorhexidine]
CFU/ml (Staphylococcus aureus [1]): 1 × 10^5 CFU/ml

benzalkonium chloride [BZK]
CFU/mL (Staphylococcus aureus [2]; concentration 0.02%): 2.0 × 10^7 CFU/mL

polyhexamethylene biguanide [PHMB]
CFU/mL (Staphylococcus aureus [2]; concentration 0.025%): 5.0 × 10^6 CFU/mL | CFU/mL (Staphylococcus aureus [2]; concentration 0.05%): 2.0 × 10^6 CFU/mL | CFU/mL (Staphylococcus aureus [2]; concentration 0.1%): 4.0 × 10^6 CFU/mL

[H]/N=C(\N/C(=N/[H])NCCCCCCNC(=N)NC(=N)Nc1ccc(Cl)cc1)Nc1ccc(Cl)cc1 [1% CHX, chlorhexidine]
CFU/ml (Staphylococcus aureus [1]): 1 × 10^4 CFU/ml

parachlorometaxylenol [.5% PCMX]
CFU/ml (Staphylococcus aureus [1]): 0 CFU/ml
